The source of these data is US4737500A, “1-substituted-4-(thiazolyl-2-)-piperazines, -piperidines and -tetrahydropyridines useful as anxiolytic, psychogeriatric, antidepressant and antischizophrenic agents” (priority 1985, dated 1988).

SMILES strings stand for the structures.

The conditions of experiment [1]: characteristic for antidepressants; H. Kleinlogel, page 83; cited from earlier work.
A short description of experiment [2]: aggression test: social interactions in male mice in aggression-evoking social encounters. The format is in vivo, mouse. The settings on record: 0.3 mg/kg p.o. (acute administration). On the procedure: The compounds of formula I promote social interactions after acute and chronic administration of 0.3 to 10 mg/kg p.o. in male mice in aggression-evoking social encounters [A. K. Dixon, Triangle 21 (1982) 95-105; M. Krsiak, Brit. J. Pharmacol. 55 (1975) 141-150]. […] M. Y. Spiegelstein, A. Levy, Elsevier, Amsterdam (1982) 39-55].

Experiment [3] is described as follows: atypical dozing in the rat-8h-sleep-EEG. It is filed as in vivo. The settings on record: 10 mg/kg p.o.
Experiment [4] addresses T1, 5HT-1A-binding sites in the pig cortex (Sus scrofa, UniProt A0A4X1UTF5).
T1 construct: from tissue; host or cells: pig cortex
T1 sequence (A0A4X1UTF5 1-422): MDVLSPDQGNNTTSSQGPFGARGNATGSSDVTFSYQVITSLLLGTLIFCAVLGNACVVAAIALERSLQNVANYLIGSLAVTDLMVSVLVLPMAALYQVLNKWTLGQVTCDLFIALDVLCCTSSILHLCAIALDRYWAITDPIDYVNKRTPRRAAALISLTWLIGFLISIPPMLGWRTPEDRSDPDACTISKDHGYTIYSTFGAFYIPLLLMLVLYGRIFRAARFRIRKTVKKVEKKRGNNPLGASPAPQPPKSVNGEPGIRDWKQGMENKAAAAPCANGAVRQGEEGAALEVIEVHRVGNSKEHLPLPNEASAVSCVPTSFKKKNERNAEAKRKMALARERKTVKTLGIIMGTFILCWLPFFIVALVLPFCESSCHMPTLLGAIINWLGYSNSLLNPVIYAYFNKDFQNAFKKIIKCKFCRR
Briefly: 5HT-1A-binding affinity test, binding of 3H-8-hydroxy-2-(di-n-propylamino)-tetraline (3H-PAT).

Experiment [5] is described as follows: 8h-sleep-EEG: sleep phases in the sleep/wake cycle in the rat. It is filed as in vivo. The settings on record: 10 mg/kg p.o.; rat 8h-sleep-EEG. On the procedure:
Further, the compounds of formula I modify the sleep phases in the sleep/wake cycle in the rat after administration of 3 to 30 mg/kg p.o. [H. Kleinlogel, EEG in Drug Research, Ed. H. Hermann, Gustav Fischer Verlag, Stuttgart, New York, 75-88 (1982)]. In the 8h-EEG, the slow wave phase (SWS) is increased, whereas the spindle phase and the paradoxical sleep phase (PS) are reduced. In Hjorth, parameters are the mean EEG amplitude (CA) and the complexity (CCF) increased.

The conditions of experiment [6]: reference antidepressants, A. K. Dixon 1982; cited from earlier work.
For experiment [7] the following is noted: reference antischizophrenics; Sayers and Kleinlogel 1974; cited from earlier work.

Turning to `CN1CCN2c3ccccc3Cc3ccccc3C2C1` (stereo not drawn) [mianserine], the “decrease of paradoxical sleep phase” value in experiment [1] was “decrease of paradoxical sleep phase”.

Turning to `CN1Cc2c(N)cccc2C(c2ccccc2)C1` (stereo not drawn) [nomifensine], the “decrease of paradoxical sleep phase” value in experiment [1] is recorded as “decrease of paradoxical sleep phase”.

As usually defined, the IC50 is the concentration that gives 50% inhibition. As to `COc1ccc(Cl)cc1C(=O)NCCN1CCN(c2nc(C(C)(C)C)cs2)CC1` [Example 8, 5-Chloro-2-methoxy-N-(2-(4-(4-(1,1-dimethylethyl)-2-thiazolyl)-1-piperazinyl)ethyl)-benzamide], the “promotion of social interactions” value in experiment [2] was “promotes social interactions”. The atypical dozing result in experiment [3] was “shows atypical dozing”. Also, in experiment [4], the IC50 was determined as 600 nM. In experiment [5], the “complexity (CCF)” value is reported as “increased”, the “mean EEG amplitude (CA)” value is recorded as “increased”, the “paradoxial sleep phase (PS)” value is “reduces” and the “slow wave phase (SWS)” value is “increases”. Further, the spindle phase entry in experiment [5] is given as “reduces”.

In experiment [4], `O=C1CC2(CCCC2)CC(=O)N1CCCCN1CCN(c2ncccn2)CC1` [buspirone] returned an IC50 of 10 to 400 nM.

Turning to `CN(C)CCN1C(=O)c2ccccc2N(C)c2ccccc21` [dibenzepine], the “decrease of paradoxical sleep phase” value in experiment [1] is on record as “decrease of paradoxical sleep phase”.

Regarding `CN(C)CCCN1c2ccccc2CCc2ccccc21` [imipramine], the “decrease of paradoxical sleep phase” value in experiment [1] was “decrease of paradoxical sleep phase”. In experiment [6], the “promotion of social behaviour” value is “promote social behaviour”.

For the compound `CNCCCN1c2ccccc2CCc2ccccc21` [desipramine], the “decrease of paradoxical sleep phase” value in experiment [1] was “decrease of paradoxical sleep phase”.

Regarding `O=C(CCCN1CCC(O)(c2ccc(Cl)cc2)CC1)c1ccc(F)cc1` [haloperidol], in experiment [7], the “atypical dozing characteristic for antischizophrenics” value is recorded as “atypical dozing characteristic”.

On to `CN(C)CCC=C1c2ccccc2CCc2ccccc21` [amitriptyline], for which, in experiment [6], the “promotion of social behaviour” value was “promote social behaviour”.

Regarding `CN1CCN(C2=Nc3cc(Cl)ccc3Nc3ccccc32)CC1` [clozapine], in experiment [7], the “atypical dozing characteristic for antischizophrenics” value is recorded as “atypical dozing characteristic”.
